Data taken from patent US12528837B2, “Aryl substituted polymyxin derivatives” (priority 2018, dated 2026).
Converted amounts (≈) assume the structure as drawn. Like-named read-outs stand apart in the source and are kept apart here. Marks after values point to notes of the source that are not given here. *1 amine or outer side, *2 acyl side, *3 side chain or, on linkers, in order; H or OH if unused. Where a SMILES comes first, the peptide text is derived from it. Bridges are numbered along the chain shown (N, C = ends). [ ]: non-standard residue; d: D form. The star is where a group is joined. GABA(3R-Bn) = O=C(C[C@H](CN[*:1])Cc1ccccc1)[*:2]; X17 = CC(C)C[C@@H]1CNC[C@@H](C(=O)*)C1; X1 = NC[C@@H](CC(=O)*)c1cccc(Cl)c1; Dab = NCC[C@H](N)C(=O)O; Dap = NC[C@H](N)C(=O)O

Assays:
[1] = Renal toxicity in mice, 25 mg/kg sc four doses at 8 hr intervals, biomarkers and histopathology; assay type: in vivo, mouse; conditions: sc 25 mg free base/kg; for Kidney histopathology: signs of degeneration or regeneration: mice (n=6)
Description: After the fourth dose animals were transferred into individual metabolic cages and urine collected for 24 hours for determination of urinary biomarkers. After collecting urine mice were euthanised and the kidneys harvested for histopathology.

A. baumannii NCTC 13424 = assay type: cell-based; conditions: NCTC 13424
Description: (§1) The inoculum was prepared by making a direct suspension of isolated colonies (selected from an 18-24 hour Mueller-Hinton agar plate) adjusted to the 0.5 McFarland standard. […] The assays were performed in duplicate. […] The MIC values are quoted in μg/mL.

P. aeruginosa ATCC 27853 [2] = assay type: cell-based; conditions: ATCC 27853
Description: as §1

[3] = Renal toxicity in mice, 17.2 mg/kg sc three times per day, urinary biomarkers; assay type: in vivo, mouse
Description: Starting immediately after the first dose on day 4, mice were transferred to individual metabolic cages and urine was collected over the following 24 hours for determination of biomarker levels (albumin, cystatin C, KIM-1).
PMB values show the range from 4 experiments and colistin from 2 experiments.
Elevation of albumin, cystatin C or KIM-1 in the urine are signs of renal damage.

[4] = Kidney drug level after subcutaneous dose in mouse; assay type: in vivo; conditions: for Drug Level in Kidney 4 h / Drug Level in Kidney 16 h: sc, 17.2 mg/kg; for 4 hr kidney level/rel. cytotoxicity: ratio of 4 h kidney level to HK-2 IC50 relative to PMB
Outline: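 Mice were euthanised four hours after subcutaneous dosing. Both kidneys were trimmed, weighed, snap-frozen, then homogenised with zirconium oxide beads. After centrifugation (13,000 rpm, 6 °C, 10 min), supernatants were analysed by LC-MS-MS.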

HK-2 cells = test: In vitro renal cell toxicity assay (HK-2); assay type: cell-based
Outline: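 HK-2 cells seeded 7,500/well, adhered overnight, then exposed to compound for 24 h at 37° C, 5% CO2, with 5% water and 0.5% DMSO. Background-subtracted, vehicle-normalised dose-response fitted with bottom fixed at zero; IC50 reported relative to PMB in the same run, median where repeated.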

P. aeruginosa CCUG 59347 = assay type: cell-based
Outline: (§2)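 Inoculum was a direct suspension of isolated colonies from an 18-24 hour Mueller-Hinton agar plate, adjusted to the 0.5 McFarland standard. Assays ran in duplicate. MICs are in μg/mL; compounds tested more than once are reported as the median.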

E. coli CA58 = assay type: cell-based
Outline: as §2

K. pneumoniae CA64 = assay type: cell-based
Outline: as §2

A. baumannii IHMA 517303 = assay type: cell-based; conditions: IHMA 517303
Description: (§3) MIC values (μg/mL) were determined by broth microdilution under CLSI conditions.

[5] = test system: P. aeruginosa IHMA 517175; assay type: cell-based; conditions: IHMA 517175
Description: as §3

[6] = test system: A. baumannii NCTC 13301 (OXA-23); assay type: cell-based; conditions: NCTC 13301
Description: as §3

[7] = test system: K. pneumoniae IHMA 520329 (SHV-12, KPC-2); assay type: cell-based; conditions: IHMA 520329 (SHV-12, KPC-2)
Description: as §3

[8] = test system: P. aeruginosa IHMA 644636; assay type: cell-based; conditions: IHMA 644636
Description: as §3

[9] = test system: K. pneumoniae IHMA 580884; assay type: cell-based; conditions: IHMA 580884
Description: as §3

E. coli IHMA 940398 = assay type: cell-based; conditions: IHMA 940398
Description: as §3

P. aeruginosa ATCC 27853 [10] = assay type: cell-based; conditions: ATCC 27853; remark: listed apart in the source
Description: as §3

E. coli CDF-1 (MCR-1) = assay type: cell-based; conditions: CDF-1 (MCR-1)
Description: as §3

[11] = test system: A. baumannii IHMA 851735 (OXA-23); assay type: cell-based; conditions: IHMA 851735 (OXA-23)
Description: as §3

[12] = Renal toxicity in Cynomolgus monkey, iv infusion 7 days; assay type: in vivo; conditions: Cynomolgus monkey (n=3), 20 mg/kg/dose, 3 times per day, 7 days
Description: In a separate experiment male monkeys (n=3) were dosed with PMB for the same period at 4 mg/kg/dose. In both experiments control animals were dosed 3 times per day with saline.
At the end of the 7 day period blood was sampled and the serum levels of blood urea nitrogen and creatinine determined as indicators of renal damage.
Kidneys were harvested at the end of the 7 day dosing period and examined microscopically.

[13] = Renal toxicity grading by urinary biomarkers (Table A); assay type: in vivo, mouse; parameters: key: −: indistinguishable to vehicle control; ++++: strong response from all biomarkers; conditions: 4 doses 8 h apart at 25 mg free base/kg/dose or 4 days at 17.2 mg free base/kg/dose; urine 16-24 h
E. coli ATCC 25922 = assay type: cell-based; conditions: cation-adjusted Mueller-Hinton Broth, 18-20 h, 35° C.
Description: as §1

[14] = test system: A. baumannii ATCC BAA-747; assay type: cell-based; conditions: cation-adjusted Mueller-Hinton Broth, 18-20 h, 35° C.
Description: as §1

K. pneumoniae ATCC 13822 = assay type: cell-based; conditions: cation-adjusted Mueller-Hinton Broth, 18-20 h, 35° C.
Description: as §1

[15] = mice, sc three times per day 17.2 mg free base/kg, urine 24 h from day 4, geometric mean
[16] = cation-adjusted Mueller-Hinton Broth, 18-20 h, 35° C.

Compound: CC(C)C[C@@H]1NC(=O)[C@@H](Cc2ccccc2)NC(=O)[C@H](CCN)NC(=O)[C@@H](NC(=O)[C@H](CN)NC(=O)[C@@H](NC(=O)C[C@H](CN)c2cccc(Cl)c2)[C@@H](C)O)CCNC(=O)[C@H]([C@@H](C)O)NC(=O)[C@H](CCN)NC(=O)[C@H](CCN)NC1=O [Example 5, (S)-4-amino-3-(3- chlorophenyl)butanoyl- Thr-Dap-Cyclo[Dab- Dab-DPhe-Leu-Dab- Dab-Thr]] (X1-T[Dap][Dab][Dab][dF]L[Dab][Dab]T; lactam 3-C)
- Kidney histopathology: signs of degeneration or regeneration [1]: None of the animals
- MIC A. baumannii NCTC 13424 (A. baumannii NCTC 13424): 0.06 µg/mL (≈ 0.0524 µM)
- MIC P. aeruginosa ATCC 27853 (P. aeruginosa ATCC 27853 [2]): 0.25 µg/mL (≈ 0.218 µM)
- Urinary biomarkers of renal toxicity, comparison (in words) ([3]; albumin, cystatin C, KIM-1, mice 17.2 mg free base/kg three times per day): lowest levels of all 3 biomarkers
- Drug Level in Kidney (μg/g kidney, 4 h) ([4]; mouse, 17.2 mg/kg sc, 4 h): 170 μg/g kidney
- Drug Level in Kidney 4 h ([4]; mouse, in vivo): 170 µg/g kidney
- Drug Level in Kidney 16 h ([4]; mouse, in vivo): 19 µg/g kidney
- 4 hr kidney level/rel. cytotoxicity [4]: 15
- HK-2 rel to PMB (HK-2 cells): 11.6
- MIC P. aeruginosa CCUG 59347 (P. aeruginosa CCUG 59347; CCUG 59347): 0.25 µg/mL (≈ 0.218 µM)
- MIC E. coli CA58 (E. coli CA58; CA58): 8 µg/mL (≈ 6.99 µM)
- MIC K. pneumoniae CA64 (K. pneumoniae CA64; CA64): 16 µg/mL (≈ 14 µM)
- MIC A. baumannii IHMA 517303 (A. baumannii IHMA 517303): >64 µg/mL
- MIC P. aeruginosa IHMA 517175 [5]: 8 µg/mL (≈ 6.99 µM)
- MIC A. baumannii NCTC 13301 [6]: 0.06 µg/mL (≈ 0.0524 µM)
- MIC K. pneumoniae IHMA 520329 [7]: >64 µg/mL
- MIC P. aeruginosa IHMA 644636 [8]: 32 µg/mL (≈ 28 µM)
- MIC K. pneumoniae IHMA 580884 [9]: 16 µg/mL (≈ 14 µM)
- MIC E. coli IHMA 940398 (E. coli IHMA 940398): 32 µg/mL (≈ 28 µM)
- MIC P. aeruginosa ATCC 27853 (P. aeruginosa ATCC 27853 [10]): 0.25 µg/mL (≈ 0.218 µM)
- MIC E. coli CDF-1 (E. coli CDF-1 (MCR-1)): 8 µg/mL (≈ 6.99 µM)
- MIC A. baumannii IHMA 851735 [11]: 0.25 µg/mL (≈ 0.218 µM)
- Kidney microscopy: tubular degeneration [12]: 1 showed mild tubular degeneration and 2 showed minimal degeneration

Compound: Colistin
- Albumin, urine [3, 15]: 2,353-2,548 μg/24 h
- Cystatin C, urine [3, 15]: 1,266-1,678 ng/24 h
- KIM-1, urine [3, 15]: 42-89 ng/24 h

Compound: CC(C)C[C@@H]1CNC[C@@H](C(=O)N[C@H](C(=O)N[C@@H](CN)C(=O)N[C@H]2CCNC(=O)[C@H]([C@@H](C)O)NC(=O)[C@H](CCN)NC(=O)[C@H](CCN)NC(=O)[C@H](CC(C)C)NC(=O)[C@@H](CC(C)C)NC(=O)[C@H](CCN)NC2=O)[C@@H](C)O)C1 [Reference Example D77, reference compound] (X17-T[Dap][Dab][Dab][dL]L[Dab][Dab]T; lactam 3-C)
- Drug Level in Kidney 4 h ([4]; mouse, in vivo): 516 µg/g kidney
- Drug Level in Kidney 16 h ([4]; mouse, in vivo): 264 µg/g kidney
- Cytotoxicity (measured IC50 relative to that recorded for Polymyxin B) (HK-2 cells): 23**
- Renal toxicity (grade from urinary KIM-1, albumin, cystatin C) [13]: ++++

Compound: CC(C)C[C@@H]1NC(=O)[C@@H](Cc2ccccc2)NC(=O)[C@H](CCN)NC(=O)[C@@H](NC(=O)[C@H](CN)NC(=O)[C@@H](NC(=O)C[C@H](CN)Cc2ccccc2)[C@@H](C)O)CCNC(=O)[C@H]([C@@H](C)O)NC(=O)[C@H](CCN)NC(=O)[C@H](CCN)NC1=O [Example 9, (R)-4-amino-3- benzylbutanoyl-Thr- Dap-Cyclo[Dab-Dab- DPhe-Leu-Dab-Dab- Thr). Isomer 1] ({GABA(3R-Bn)}-T[Dap][Dab][Dab][dF]L[Dab][Dab]T; lactam 3-C)
- Kidney histopathology: signs of degeneration or regeneration [1]: None of the animals
- Albumin, urine ([1]; mice, urine 24 h): 749 μg/24 h
- Cystatin C, urine ([1]; mice, urine 24 h): 754 ng/24 h
- KIM-1, urine ([1]; mice, urine 24 h): 2 ng/24 h
- MIC E. coli ATCC 25922 (E. coli ATCC 25922): 0.25 µg/mL (≈ 0.222 µM)
- MIC A. baumannii ATCC BAA-747 [14]: 0.25 µg/mL (≈ 0.222 µM)
- MIC K. pneumoniae ATCC 13822 (K. pneumoniae ATCC 13822): 0.25 µg/mL (≈ 0.222 µM)
- Drug Level in Kidney (μg/g kidney, 4 h) ([4]; mouse, 17.2 mg/kg sc, 4 h): 159 μg/g kidney
- Drug level in kidney ([4]; mouse, 17.2 mg/kg sc, 4 hours): 159 µg/g
- tissue level at time at 4 h ([4]; mouse, in vivo, mice, 17.2 mg/kg free base sc, 4 h, read-out: 4 hr kidney level): 159000 ng/g
- 4 hr kidney level/rel. cytotoxicity [4]: 13
- HK-2 rel to PMB (HK-2 cells; IC50 relative to PMB in the same experiment, 24 h): 12.0
- MIC P. aeruginosa CCUG 59347 (P. aeruginosa CCUG 59347; [16]): 0.5 µg/mL (≈ 0.445 µM)
- MIC E. coli CA58 (E. coli CA58; [16]): 8 µg/mL (≈ 7.12 µM)
- MIC K. pneumoniae CA64 (K. pneumoniae CA64; [16]): 64 µg/mL (≈ 56.9 µM)
